These results are taken from ChEMBL document CHEMBL1144683, “Design, synthesis and antiproliferative properties of oligomers with chromophore units linked by amide backbones” (Bioorg Med Chem Lett, 2008).

Data set [1] is described as follows: (§1) Antiproliferative activity against human GLC-4S cells by MTT assay. The format is functional, cell-based. On the technique in general: Tetrazolium dyes change colour on reduction, which living cells bring about.
Another data set concerns Jurkat. The data set can be described thus: Antiproliferative activity against human Jurkat E6-1 cells by MTT assay. In kind it is functional, cell-based.
The nature of data set [2]: Antiproliferative activity against mouse NIH-3T3 cells by MTT assay. The format is cell-based, NIH3T3. Conditions: for Activity: mouse, nih3t3; for IC50: Mus musculus, NIH3T3.
The next data set has as its system GLC-4S. The data set is described as §1. The format is functional, cell-based.

Each structure is given as a SMILES string. Activity calls are given as the source filed them. The rule behind the calls is not given here.

Broadly, the IC50 is the concentration at which inhibition is half-maximal. Turning to `CC(=O)N[C@H]1C[C@@H](C(=O)N[C@H]2C[C@@H](C(N)=O)N(C(=O)CNC(=O)c3c4ccccc4nc4ccccc34)C2)N(C(=O)CNC(=O)c2c3ccccc3nc3ccccc23)C1`, the IC50 in data set [1] is 135 µM; in the data set on Jurkat, 149 µM. In data set [2], the Activity result is on record as “Not Active”.

In data set [1], `CC(=O)N[C@H]1C[C@@H](C(=O)NC2C[C@@H](C(=O)NC3C[C@@H](C(N)=O)N(C(=O)CNC(=O)c4c5ccccc5nc5ccccc45)C3)N(C(=O)CNC(=O)c3c4ccccc4nc4ccccc34)C2)N(C(=O)CNC(=O)c2c3ccccc3nc3ccccc23)C1` (some centres not stated) gave an IC50 of 134 µM. Besides, the result with Jurkat was inactive. Further, the Activity entry in data set [2] was “Not Active”.

For the compound `CC(=O)N[C@H]1C[C@@H](C(=O)N[C@H]2C[C@@H](C(N)=O)N(C(=O)CNC(=O)c3c4ccccc4nc4c3[nH]c3ccccc34)C2)N(C(=O)CNC(=O)c2c3ccccc3nc3c2[nH]c2ccccc23)C1`, the IC50 in data set [1] stood at 54 µM; with Jurkat, 37 µM. In data set [2], the Activity entry is given as “Not Active”.

Consider `COC(=O)CNC(=O)c1c2ccccc2nc2ccccc12`, for which the result with GLC-4S and in the data set on Jurkat was inactive. For the same compound, the Activity entry in data set [2] is “Not Active”.

Regarding `CC(=O)N[C@H]1C[C@@H](C(=O)N[C@H]2C[C@@H](C(N)=O)N(C(=O)CNC(=O)c3c4ccccc4nc4ccccc34)C2)N(C(=O)CNC(=O)c2c3ccccc3nc3c2[nH]c2ccccc23)C1`, the IC50 came out at 165 µM in data set [1] and 120 µM in the data set on Jurkat. Moreover, the Activity entry in data set [2] is recorded as “Not Active”.

Consider `CC(=O)N[C@H]1C[C@@H](C(=O)N[C@H]2C[C@@H](C(N)=O)N(C(=O)CNC(=O)c3c4ccccc4nc4c3[nH]c3ccccc34)C2)N(C(=O)CNC(=O)c2c3ccccc3nc3ccccc23)C1`, for which the IC50 stood at 125 µM in data set [1], 92 µM with Jurkat and 376 µM in data set [2].

On to `O=C(O)CNC(=O)c1c2ccccc2nc2ccccc12`, for which the result in the data set with GLC-4S and in the data set on Jurkat was inactive. In addition, the Activity result in data set [2] is given as “Not Active”.

On to `CC(=O)N[C@H]1C[C@@H](C(=O)N[C@H]2C[C@@H](C(=O)N[C@H]3C[C@@H](C(N)=O)N(C(=O)CNC(=O)c4c5ccccc5nc5c4[nH]c4ccccc45)C3)N(C(=O)CNC(=O)c3c4ccccc4nc4ccccc34)C2)N(C(=O)CNC(=O)c2c3ccccc3nc3c2[nH]c2ccccc23)C1`, for which the half-maximal inhibitory concentration (IC50) in data set [1] is 82 µM; with Jurkat, 112 µM; in data set [2] it was 263 µM.

Regarding `CC(=O)N[C@H]1C[C@@H](C(=O)N[C@H]2C[C@@H](C(=O)N[C@H]3C[C@@H](C(N)=O)N(C(=O)CNC(=O)c4c5ccccc5nc5ccccc45)C3)N(C(=O)CNC(=O)c3c4ccccc4nc4c3[nH]c3ccccc34)C2)N(C(=O)CNC(=O)c2c3ccccc3nc3ccccc23)C1`, the IC50 turned out to be 91 µM in data set [1] and 87 µM with Jurkat. Moreover, in data set [2], the Activity result is on record as “Not Active”.

Take `O=C(O)CNC(=O)c1c2ccccc2nc2c1[nH]c1ccccc12`: the result in the data set on GLC-4S was inactive. Moreover, the concentration for half-maximal inhibition (IC50) in the data set on Jurkat worked out at 12 µM. For the same compound, in data set [2], the Activity entry is reported as “Not Active”.

For `COC(=O)CNC(=O)c1c2ccccc2nc2c1[nH]c1ccccc12`, in the data set with GLC-4S, the result was inactive. Also, the midpoint of inhibition in the data set with Jurkat, the IC50, lay at 8 µM. Moreover, the Activity entry in data set [2] is given as “Not Active”.

Turning to `CC(=O)N[C@H]1C[C@@H](C(=O)N[C@H]2C[C@@H](C(=O)N[C@H]3C[C@@H](C(N)=O)N(C(=O)CNC(=O)c4c5ccccc5nc5ccccc45)C3)N(C(=O)CNC(=O)c3c4ccccc4nc4ccccc34)C2)N(C(=O)CNC(=O)c2c3ccccc3nc3c2[nH]c2ccccc23)C1`, the results for the IC50 (in data set [1]; in the data set on Jurkat; in data set [2]) were 169 µM, 129 µM and 357 µM, respectively.

For the compound `CC(=O)N[C@H]1C[C@@H](C(=O)N[C@H]2C[C@@H](C(=O)N[C@H]3C[C@@H](C(N)=O)N(C(=O)CNC(=O)c4c5ccccc5nc5c4[nH]c4ccccc45)C3)N(C(=O)CNC(=O)c3c4ccccc4nc4c3[nH]c3ccccc34)C2)N(C(=O)CNC(=O)c2c3ccccc3nc3ccccc23)C1`, the IC50 amounted to 151 µM in data set [1], 103 µM in the data set with Jurkat and 227 µM in data set [2].

Take `CC(=O)N[C@H]1C[C@@H](C(=O)N[C@H]2C[C@@H](C(=O)N[C@H]3C[C@@H](C(N)=O)N(C(=O)CNC(=O)c4c5ccccc5nc5c4[nH]c4ccccc45)C3)N(C(=O)CNC(=O)c3c4ccccc4nc4ccccc34)C2)N(C(=O)CNC(=O)c2c3ccccc3nc3ccccc23)C1`: the IC50 in data set [1] is 174 µM; in the data set on Jurkat it was 86 µM; in data set [2], 426 µM.
